Assay results from patent US20250215039A1, “NUCLEOSIDES FOR TREATING CANCER” (PRIMEFOUR THERAPEUTICS, INC., priority 2022, published 2025).
Where two headings read alike, the source gives them in different places.

Test system: cancer cell lines
Assay: Cancer cell proliferation activity (CellTiterGlo, 72 h)
Type: cell-based
Details: 72 h, 72 h, read-out: IC50 cell proliferation
Outline: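 Readout is CellTiterGlo luminescence after 72 h compound exposure (0.1% DMSO final), started one day post-seeding, at 37 °C.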

IC50 (5637 (bladder)): 230 nM
IC50 (CLS439 (bladder)): 400 nM
IC50 (HS729 (muscle)): 150 nM
IC50 (J82 (bladder)): 160 nM
IC50 (JAR (placenta)): 100 nM
IC50 (MT3 (breast)): 120 nM
IC50 (PANCI (pancreas)): 2250 nM
IC50 (PC3 (prostate)): 220 nM
IC50 (RD (muscle)): 210 nM
IC50 (T24 (bladder)): 300 nM
IC50 (Homo sapiens, 22Rv1, 72 h, 22RV1 (prostate)): 540 nM
IC50 (Homo sapiens, 786-0, 72 h, 786O (kidney)): 110 nM
IC50 (Homo sapiens, A204, 72 h, A204 (muscle)): 140 nM
IC50 (Homo sapiens, A549, 72 h, A549 (lung)): 60 nM
IC50 (Homo sapiens, A673, 72 h, A673 (bone)): 700 nM
IC50 (Homo sapiens, A2780, 72 h, A2780 (ovary)): 390 nM
IC50 (Homo sapiens, A-375, 72 h, A375 (skin)): 110 nM
IC50 (Homo sapiens, A-431, 72 h, A431 (skin)): 70 nM
IC50 (Homo sapiens, ACHN, ACHN (kidney)): 90 nM
IC50 (Homo sapiens, ASPC1, 72 h, ASPC1 (pancreas)): 130 nM
IC50 (Homo sapiens, BT-20, 72 h, BT20 (breast)): 110 nM
IC50 (Homo sapiens, BXPC-3, 72 h, BXPC3 (pancreas)): 80 nM
IC50 (Homo sapiens, C-33-A, C33A (endometrial)): 380 nM
IC50 (Homo sapiens, CAKI-1, 72 h, CAKI1 (kidney)): 20 nM
IC50 (Homo sapiens, COLO 205, 72 h, COLO205 (colon)): 330 nM
IC50 (Homo sapiens, COLO-678, 72 h, COLO678 (colon)): 100 nM
IC50 (Homo sapiens, Ca-Ski, CASKI (endometrial)): 50 nM
IC50 (Homo sapiens, Caco-2, 72 h, CACO2 (colon)): 280 nM
IC50 (Homo sapiens, Calu-6, 72 h, CALU6 (lung)): 40 nM
IC50 (Homo sapiens, DLD-1, 72 h, DLD1 (colon)): 510 nM
IC50 (Homo sapiens, DU-145, 72 h, DU145 (prostate)): 30 nM
IC50 (Homo sapiens, EFO-21, 72 h, EFO21 (ovary)): 150 nM
IC50 (Homo sapiens, EJ-28, 72 h, EJ28 (bladder)): 140 nM
IC50 (Homo sapiens, Granta-519, 72 h, GRANTA-519 (hematological)): 160 nM
IC50 (Homo sapiens, HCT-15, 72 h, HCT15 (colon)): 290 nM
IC50 (Homo sapiens, HCT-116, 72 h, HCT116 (colon)): 250 nM
IC50 (Homo sapiens, HEK293, 72 h, HEK293 (kidney)): 200 nM
IC50 (Homo sapiens, HL-60, 72 h, HL-60 (hematological)): 100 nM
IC50 (Homo sapiens, HT-29, 72 h, HT29 (colon)): 260 nM
IC50 (Homo sapiens, HT-1080, 72 h, HT1080 (connective tissue)): 270 nM
IC50 (Homo sapiens, HeLa, HELA (endometrial)): 80 nM
IC50 (Homo sapiens, HepG2, 72 h, HEPG2 (liver)): 170 nM
IC50 (Homo sapiens, Hs-578T, HS578T (breast)): 60 nM
IC50 (Homo sapiens, IGROV-1, 72 h, IGROV1 (ovary)): 80 nM
IC50 (Homo sapiens, IMR-90, 72 h, IMR90 (lung)): 60 nM
IC50 (Homo sapiens, JEG-3, 72 h, JEG3 (placenta)): 100 nM
IC50 (Homo sapiens, JIMT-1, 72 h, JIMT1 (breast)): 30 nM
IC50 (Homo sapiens, K562, 72 h, K-562 (hematological)): 530 nM
IC50 (Homo sapiens, Kasumi 1, 72 h, KASUMI-1 (hematological)): 20 nM
IC50 (Homo sapiens, L-363, 72 h, L-363 (hematological)): 90 nM
IC50 (Homo sapiens, LoVo, LOVO (colon)): 30 nM
IC50 (Homo sapiens, MCF7, 72 h, MCF7 (breast)): 390 nM
IC50 (Homo sapiens, MDA-MB-231, 72 h, MDAMB231 (breast)): 240 nM
IC50 (Homo sapiens, MDA-MB-435, 72 h, MDAMB435 (skin)): 320 nM
IC50 (Homo sapiens, MDA-MB-436, 72 h, MDAMB436 (breast)): 80 nM
IC50 (Homo sapiens, MDA-MB-468, 72 h, MDAMB468 (breast)): 70 nM
IC50 (Homo sapiens, MG-63, 72 h, MG63 (bone)): 1730 nM
IC50 (Homo sapiens, MHH-ES-1, 72 h, MHHES1 (bone)): 170 nM
IC50 (Homo sapiens, MIA PaCa-2, 72 h, MIAPACA2 (pancreas)): 1750 nM
IC50 (Homo sapiens, MINO, MINO (hematological)): 20 nM
IC50 (Homo sapiens, MV4-11, 72 h, MV4-11 (hematological)): 20 nM
IC50 (Homo sapiens, NCI-H23, 72 h, NCI-H23 (lung)): 220 nM
IC50 (Homo sapiens, NCI-H82, 72 h, NCIH82 (lung)): 170 nM
IC50 (Homo sapiens, NCI-H292, 72 h, NCIH292 (lung)): 150 nM
IC50 (Homo sapiens, NCI-H460, 72 h, NCIH460 (lung)): 170 nM
IC50 (Homo sapiens, OVCAR-3, 72 h, OVCAR3 (ovary)): 80 nM
IC50 (Homo sapiens, OVCAR-4, 72 h, OVCAR4 (ovary)): 150 nM
IC50 (Homo sapiens, PLC-PRF-5, 72 h, PLCPRF5 (liver)): 1040 nM
IC50 (Homo sapiens, Panc1005, 72 h, PANC1005 (pancreas)): 180 nM
IC50 (Homo sapiens, Ramos, RAMOS (hematological)): 140 nM
IC50 (Homo sapiens, SAOS-2, 72 h, SAOS2 (bone)): 100 nM
IC50 (Homo sapiens, SF-268, 72 h, SF268 (brain)): 300 nM
IC50 (Homo sapiens, SF-295, 72 h, SF295 (brain)): 220 nM
IC50 (Homo sapiens, SK-BR-3, 72 h, SKBR3 (breast)): 30 nM
IC50 (Homo sapiens, SK-HEP1, 72 h, SKHEP1 (liver)): 60 nM
IC50 (Homo sapiens, SK-LMS-1, 72 h, SKLMS1 (uterus)): 140 nM
IC50 (Homo sapiens, SK-MEL-5, 72 h, SKMEL5 (skin; SKMELS [sic] in Table 9E)): 90 nM
IC50 (Homo sapiens, SK-MEL-28, 72 h, SKMEL28 (skin)): 100 nM
IC50 (Homo sapiens, SK-N-AS, SKNAS (brain)): 120 nM
IC50 (Homo sapiens, SK-N-SH, SKNSH (brain)): 80 nM
IC50 (Homo sapiens, SK-OV-3, 72 h, SKOV3 (ovary)): 90 nM
IC50 (Homo sapiens, SNB-75, 72 h, SNB75 (brain)): 220 nM
IC50 (Homo sapiens, SU-DHL10, 72 h, SU-DHL-10 (hematological)): 210 nM
IC50 (Homo sapiens, SU-DHL-6, 72 h, SU-DHL-6 (hematological)): 60 nM
IC50 (Homo sapiens, SW-620, 72 h, SW620 (colon)): 80 nM
IC50 (Homo sapiens, TE-671, 72 h, TE671 (muscle)): 730 nM
IC50 (Homo sapiens, THP-1, 72 h, THP-1 (hematological)): 200 nM
IC50 (Homo sapiens, U2OS, U20S (bone; U2OS in Table 9E)): 70 nM
IC50 (Homo sapiens, U-87 MG, U87MG (brain)): 150 nM
IC50 (Homo sapiens, UMUC3, 72 h, UMUC3 (bladder)): 190 nM
IC50 (Homo sapiens, UO-31, 72 h, UO31 (kidney)): 50 nM
IC50 (Homo sapiens, WSU-NHL, WSU-NHL (hematological)): 40 nM
IC50 (NCI-H358M, NCIH358M (lung)): 140 nM
IC50 (PBMC, PBMC (hematological)): 20 nM
IC50 (RD-ES, RDES (bone)): 40 nM
SMILES: CCC[C@]1(CO)O[C@@H](n2cnc3c(N)nc(F)nc32)[C@H](O)[C@@H]1O [compound 195, (2R,3S,4R,5R)-5-(6-amino-2-fluoro-9H-purin-9-yl)-2-(hydroxymethyl)-2-propyltetrahydrofuran-3,4-diol]
